{
  "source": "patent US20220193209A1",
  "about": "“COMPOSITIONS AND METHODS FOR REACTIVATING LATENT IMMUNODEFICIENCY VIRUS AND/OR TREATING IMMUNODEFICIENCY VIRUS INFECTION” (The J. David Gladstone institutes, a testamentary trust …, priority 2019, published 2022)",
  "key": {"CD4+ T cells": {"test_system": "CD4+ T cells", "type": "cell-based, human", "procedure": "CD69 and CD25 expression was measured by flow cytometry gating on CD3^+CD4^+ T cells using FITC-labeled antibodies for CD3 (11-0048-42, eBioscience), APC-conjugated CD25 antibodies (17-0259-42, eBioscience), PerCP-labeled antibodies for CD4 (300528, Biolegend), and CD69-V450 (560740, BD Horizon). Staining was performed for 30 min on ice in FACS buffer (PBS, 2% FBS), and samples were analyzed on a BD Biosciences LSRII flow cytometer. Shown are the percentages of positive cells relative to total CD3^+ CD4^+ T cells or median fluorescence intensity (MFI).\nFIG. 6, Panel A, the cell surface CD69 and CD25 T cell activation markers were measured by FACS in CD4^+ T cells upon AS1842856 treatment for 24, 48 and 72 h. 10 μg/mLαCD3 and 1 μg/mL αCD28 was used as control. Data is shown as percentage of positive cells and as mean±SD of two biological replicates. FIG. 6, Panel B, depicts the same as in FIG. 6, Panel A, but measuring FOXO1 target genes (IL7R, KLRG1, CD62L) after 48 h of AS1842856 treatment (n=3). […]. Cells were allowed to rest for 6 days before 72 h reactivation was induced with PHA/IL-2 and 10 μg/mL αCD3 and 1 μg/mLαCD28. Data are mean±SEM of at least 3 individual donors. Data represent average SD of 9-13 independent experiments. […] Cell viability was assessed by Trypan Blue exclusion."}, "FOXO1": {"molecular_target": "T1, FOXO1 (Homo sapiens, UniProt Q12778)", "T1 construct": "performed against the FOXO isoforms expressed in K562 cells; endogenous in cells; host or cells: K562", "T1 sequence (Q12778 whole entry, canonical isoform)": "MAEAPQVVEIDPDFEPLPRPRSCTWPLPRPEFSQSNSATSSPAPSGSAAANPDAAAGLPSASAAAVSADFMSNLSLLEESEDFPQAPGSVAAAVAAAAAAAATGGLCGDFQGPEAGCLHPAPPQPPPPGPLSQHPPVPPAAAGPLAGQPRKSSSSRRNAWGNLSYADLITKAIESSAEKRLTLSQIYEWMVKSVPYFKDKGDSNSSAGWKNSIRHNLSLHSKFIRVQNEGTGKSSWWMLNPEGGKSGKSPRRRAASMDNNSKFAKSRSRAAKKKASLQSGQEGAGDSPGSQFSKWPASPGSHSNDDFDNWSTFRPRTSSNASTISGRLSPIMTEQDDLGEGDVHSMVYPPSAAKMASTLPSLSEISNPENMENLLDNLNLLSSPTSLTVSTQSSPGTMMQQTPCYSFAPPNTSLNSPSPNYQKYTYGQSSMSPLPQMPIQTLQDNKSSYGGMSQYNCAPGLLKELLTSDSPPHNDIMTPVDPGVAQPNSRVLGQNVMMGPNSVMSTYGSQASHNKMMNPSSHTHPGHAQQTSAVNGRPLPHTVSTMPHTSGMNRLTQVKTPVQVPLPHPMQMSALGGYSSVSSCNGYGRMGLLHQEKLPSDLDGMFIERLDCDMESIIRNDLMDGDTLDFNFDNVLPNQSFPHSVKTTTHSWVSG", "experiment": "Cellular Thermal Shift Assay (CETSA) in K562 cells, FOXO1", "type": "binding", "details": "1 μM", "procedure": "K562 cells (ATCC) were maintained in appropriate volume of RPMI medium supplemented with 10% fetal bovine serum (Serum Plus—II, Sigma MO, USA), 100 units/mL penicillin and 100 […] (Corning, VA, USA). Short-term passages (<15) were used for all experiments. For CETSA, K562 cell were freshly seeded the day before the experiment. The day of experiment, equal numbers of cells were counted by Moxi Mini automated cell counter (Orflo) and 0.6×10^6 cells per data point were seeded in T-25 cell culture flasks (VWR, PA, USA) in appropriate volume of culture medium. Cells were exposed to […] AS1842856 or equal volume DMSO for 3 hours in an incubator with 5% CO2 and 37° C. […] The supernatants were transferred to new microcentrifuge tubes and analyzed by SDS-PAGE followed by immunoblotting analysis. […] Immunoblotting results were subjected to densitometric analysis (Image J) and melting temperatures of FOXO1, FOXO3 and FOXO4 were determined by Prism 7 (GraphPad) using nonlinear least-squares regression fit to Y=100/(1+10^(Log IC50−X)*H), where H=Hill slope (variable). The viability of the cells was assessed in triplicate by trypan blue exclusion. […]\nBriefly, K562 cells were treated with increasing concentrations of the FOXO1 inhibitor AS1842856 just after HIVGKO infection. After 3-4 days, the percentage of latent cells and productive cells were quantified by FACS. […]"}},
  "data": [
    {"smiles": "CCn1cc(C(=O)O)c(=O)c2c(N)c(F)c(NC3CCCCC3)cc21", "note": "[AS1842856, 5-amino-7-(cyclohexylamino)-1-ethyl-6-fluoro-4-oxo-1,4-dihydro-quinoline-3-carboxylic acid]", "values": [
      {"measurement": "generalized T cell activation (CD69 and CD25 expression)", "setting": "CD4+ T cells", "result": "not observed"},
      {"measurement": "shift in FOXO1 melting curve", "setting": "FOXO1", "result": 7.23, "unit": "°C"}
    ]}
  ]
}
